Laboratory results: patent US20040253665A1, “Novel peptide-producing enzyme, microbe producing the enzyme and method for dipeptide synthesis using them” (AJINOMOTO CO., INC., priority 2002, published 2004)
Read-outs that look alike come from different tables or passages of the source. Marks after values point to notes of the source that are not given here. Non-standard residues stand in square brackets, D forms with d. Residues, ends and D or L forms follow the SMILES beside them. No end group written: not given here. *: point of attachment. Aib = CC(C)(N)C(=O)O; OtBu = CC(C)(C)O*

How the values were obtained:
[1] = test system: peptide-producing enzyme (Mono S fraction) from Empedobacter brevis strain FERM BP-8113; assay: Enzyme substrate specificity (1)-(10), (13), (14); type: biochemical
Source text: Ester specificity was examined in the case of using L-amino acid ester for the carboxy component. […] The amounts of L-Ala-L-Gln produced in this reaction are shown in Table 4 (HCl represents hydrochloride in Table 4). Peptide production was examined in the case of using L-alanine methyl ester for the carboxy component and using various L-amino acids for the amine component. […] (The “+” mark indicates those peptides for which production was confirmed but which were unable to be quantified due to the absence of a standard, while “tr” indicates a trace amount.) Peptide production was examined in the case of using various types of L-amino acid methyl esters for the carboxy component and using L-glutamine for the amine component. […] Peptide production was examined in the case of using various L-amino acid methyl esters for the carboxy component and various L-amino acids for the amine component. […] (The “tr” indicates a trace amount.) Furthermore, Tween-80 was added to the reaction system to a final concentration of 0.1% in the case of using L-Trp-OMe. (The “+” mark indicates those peptides for which production was confirmed but which were unable to be quantified due to the absence of a standard.) […] (The “tr” indicates a trace amount.) Peptide production was examined using various L-amino acid amides for the carboxy component, and various L-amino acids for the amine component. […] Peptide production was examined in the case of using various L-alanine methyl esters for the carboxy component and C-protected L-amino acids for the amine component. […] Peptide production was examined in the case of using various amino acid methyl esters for the carboxy component and methylamine for the amine component. […] Peptide production was examined in the case of using β-amino acid ester for the carboxy component or β-amino acid for the amine component. […] (The “tr” indicates a trace amount.) Oligopeptide production was examined in the case of using L-amino acid ester for the carboxy component and peptide for the amine component. […] Substrate specificity was additionally assessed using the same enzyme fraction as that used in Example 5. […] (A “+” mark indicates those for which production was confirmed but which were unable to be quantified due to the absence of a standard, while “tr” indicates a trace amount). Substrate specificity with respect to oligopeptide production was assessed using the same enzyme fraction as Example 26. […] (A “+” mark indicates those for which production was confirmed but which were unable to be quantified due to the absence of a standard, while “tr” indicates a trace amount). It should be noted that hydrochlorides were used for all of the carboxy components.

[2] = test system: enzyme (SP-Sepharose HP fraction) derived from Sphingobacterium sp. strain FERM BP-8124; type: biochemical; conditions: 0.33 units enzyme, pH 9.0, 25° C., 1.5 hours
Protocol: Substrate specificity was examined for enzyme derived from Sphingobacterium sp. strain FERM BP-8124 (Depositary institution: National Institute for Advanced Industrial Science and Technology, International Patent Organism Depositary, Address of depositary institution: Central. 6, 1-1-1 Higashi, Tsukuba City, Ibaraki Prefecture, Japan, International deposit date: Jul. 22, 2002). 100 μl of 100 mM borate buffer (pH 9.0) containing the various carboxy components at a final concentration of 100 mM and the various amine components at a final concentration of 150 mM shown in Tables 15-1 to 15-4, the SP-Sepharose HP fraction enzyme purified in Example 22 (addition of 0.33 units in the reaction liquid) and 10 mM EDTA were allowed to react at 25° C. for 1.5 hours. […] In addition, hydrochlorides were used for all carboxy components.
Substrate specificity with respect to oligopeptide production was examined for enzyme derived from Sphingobacterium sp. strain FERM BP-8124 (Depositary institution: National Institute for Advanced Industrial Science and Technology,.International Patent Organism Depositary, Address of depositary institution: Chuo Dai-6, 1-1 Higashi 1-Chome, Tsukuba-shi, Ibaraki-ken, Japan, International deposit date: Jul. 22, 2002). A 100 μl aliquot of 100 mM borate buffer (pH 9.0) containing the various carboxy components at a final concentration of 100 mM and the various amine components at a final concentration of 150 mM shown in Table 16, the SP-Sepharose HP fraction enzyme purified in Example 22 (addition of 0.33 units in the reaction liquid) and 10 mM EDTA were allowed to react for 1.5 hours at 25° C. Furthermore, hydrochloride salts were used for all carboxy components.

[3] = L-amino acid methyl ester hydrochloride 100 mM, 150 mM L-glutamine, pH 9.0, 25° C., 3 hours
[4] = Table 15-2, carboxy component 100 mM, L-Gln 150 mM
[5] = L-amino acid methyl ester hydrochloride 100 mM, L-amino acid 150 mM, pH 9.0, 25° C., 3 hours
[6] = Table 15-3, carboxy component 100 mM, amine component 150 mM
[7] = L-amino acid ester 100 mM, amino acid or peptide amine component 150 mM, pH 9.0, 25° C., 3 hours
[8] = Table 16, oligopeptide production, carboxy component 100 mM, amine component 150 mM
[9] = 100 mM L-alanine methyl ester hydrochloride, L-amino acid 150 mM, pH 9.0, 25° C., 3 hours
[10] = Table 15-1, carboxy component 100 mM, amine component 150 mM
[11] = oligopeptide production, amount of enzyme 0.1 units, pH 9.0, 25° C., 3 hours
[12] = L-Ala-OMe 100 mM, L-amino acid amide 150 mM as amine component, pH 9.0, 25° C., 3 hours
[13] = Table 15-4, amides or methylamine as components, 100 mM / 150 mM
[14] = L-amino acid amide hydrochloride 100 mM as carboxy component, L-amino acid 150 mM, pH 9.0, 25° C., 3 hours
[15] = L or D amino acid methyl ester hydrochloride 100 mM, L or D amino acid 150 mM, pH 9.0, 25° C., 3 hours
[16] = β-amino acid ester as carboxy component or β-amino acid as amine component, 100 mM / 150 mM, pH 9.0, 25° C., 3 hours

Compound: NC(=O)CC[C@H](NC(=O)[C@@H]1CCCN1)C(=O)O [L-Pro-L-Gln] (H-Pro-Gln-OH)
- Produced peptide [1, 3]: 2.2 mM
- Produced peptide [2, 4]: 1.8 mM

Compound: CSCC[C@H](NC(=O)[C@@H](N)CO)C(=O)O [L-Ser-L-Met] (H-Ser-Met-OH)
- Produced peptide [1, 5]: 12.5 mM
- Produced peptide [2, 6]: 7.6 mM

Compound: CC[C@H](C)[C@H](N)C(=O)N[C@@H](Cc1ccccc1)C(=O)O [L-Ile-L-Phe] (H-Ile-Phe-OH)
- Produced peptide [1, 5]: 5.2 mM
- Produced peptide [2, 6]: 1.5 mM

Compound: CC[C@H](C)[C@H](N)C(=O)N[C@@H](CO)C(=O)O [L-Ile-L-Ser] (H-Ile-Ser-OH)
- Produced peptide [1, 5]: 17.2 mM
- Produced peptide [2, 6]: 17.3 mM

Compound: L-Ala-L-Phe-L-Ala
- Produced peptide [1, 7]: 49.7 mM
- Produced peptide [2, 8]: 24.8 mM

Compound: C[C@H](N)C(=O)N[C@H](C(=O)O)[C@@H](C)O [L-Ala-L-Thr] (H-Ala-Thr-OH)
- Produced peptide [1, 9]: 53.9 mM
- Produced peptide [2, 10]: 47.3 mM

Compound: N[C@@H](CO)C(=O)N[C@@H](Cc1ccccc1)C(=O)O [L-Ser-L-Phe]
- Produced peptide [1, 5]: 20.3 mM
- Produced peptide [2, 6]: 4.3 mM

Compound: CC[C@H](C)[C@H](NC(=O)[C@H](C)N)C(=O)O [L-Ala-L-Ile] (H-Ala-Ile-OH)
- Produced peptide [1, 9]: 33.9 mM
- Produced peptide [2, 10]: 24.7 mM

Compound: NCC(=O)N[C@@H](CCC(N)=O)C(=O)O [Gly-L-Gln] (H-Gly-Gln-OH)
- Produced peptide [1, 3]: 54.7 mM
- Produced peptide [2, 4]: 61.1 mM

Compound: L-Ala-L-Leu-L-Ala
- Produced peptide [1, 7]: 48.3 mM
- Produced peptide [2, 8]: 40.7 mM

Compound: NCC(=O)N[C@@H](Cc1ccccc1)C(=O)O [Gly-L-Phe] (H-Gly-Phe-OH)
- Produced peptide [1, 5]: 44.0 mM
- Produced peptide [1, 11]: 17.3 mM
- Produced peptide [2, 6]: 20.0 mM

Compound: L-Ala-L-Ala-L-Ala-L-Ala
- Produced peptide [1, 7]: 44.5 mM
- Produced peptide [2, 8]: 30.1 mM

Compound: NC(=O)CC[C@H](NC(=O)[C@@H](N)CCCN=C(N)N)C(=O)O [L-Arg-L-Gln] (H-Arg-Gln-OH)
- Produced peptide [1, 3]: 7.1 mM
- Produced peptide [2, 4]: 17.2 mM

Compound: C[C@H](N)C(=O)NCC(N)=O [L-Ala-Gly-NH2] (H-Ala-Gly-NH2)
- Produced peptide [1, 12]: 7.4 mM
- Produced peptide [2, 13]: 15.1 mM

Compound: NC(=O)CC[C@H](NC(=O)[C@@H](N)Cc1ccccc1)C(=O)O [L-Phe-L-Gln]
- Produced peptide [1, 14]: 0.2 mM
- Produced peptide [1, 3]: 0.9 mM
- Produced peptide [2, 4]: 0.8 mM

Compound: CNC(=O)C(C)N [L-Ala-methylamine]
- Produced peptide ([1]; amino acid methyl ester 100 mM, methylamine 150 mM, pH 9.0, 25° C., 3 hours): 0.3 mM
- Produced peptide [2, 13]: 0.6 mM

Compound: CC(C)[C@H](NC(=O)[C@@H](N)[C@@H](C)O)C(=O)O [L-Thr-L-Val] (H-Thr-Val-OH)
- Produced peptide [1, 5]: 0.7 mM
- Produced peptide [2, 6]: 1.3 mM

Compound: CC(C)[C@H](N)C(=O)N[C@@H](CCC(N)=O)C(=O)O [L-Val-L-Gln] (H-Val-Gln-OH)
- Produced peptide [1, 3]: 15.4 mM
- Produced peptide [2, 4]: 8.2 mM

Compound: NCC(=O)N[C@@H](CO)C(=O)O [Gly-L-Ser] (H-Gly-Ser-OH)
- Produced peptide [1, 5]: 44.2 mM
- Produced peptide [2, 6]: 53.8 mM

Compound: C[C@H](N)C(=O)N[C@@H](Cc1ccccc1)C(N)=O [L-Ala-L-Phe-NH2]
- Produced peptide [1, 12]: 12.2 mM
- Produced peptide [2, 13]: 27.1 mM

Compound: C[C@@H](O)[C@H](N)C(=O)NCC(=O)O [L-Thr-Gly] (H-Thr-Gly-OH)
- Produced peptide [1, 5]: 9.4 mM
- Produced peptide [2, 6]: 0.4 mM

Compound: CSCC[C@@H](N)C(=O)N[C@@H](CO)C(=O)O [D-Met-L-Ser] (H-[dM]-Ser-OH)
- Produced peptide [1, 15]: 5.1 mM

Compound: CSCC[C@H](NC(=O)[C@@H](N)CC(C)C)C(=O)O [L-Leu-L-Met] (H-Leu-Met-OH)
- Produced peptide [1, 5]: 12.2 mM

Compound: C[C@@H](O)[C@H](N)C(=O)NCCC(=O)O [Thr-β-Ala]
- Produced peptide [1, 16]: 3.2 mM

Compound: C[C@@H](O)[C@H](N)C(=O)NC(CC(=O)O)c1ccccc1 (stereo partly drawn) [Thr-β-Phe]
- Produced peptide [1, 16]: 1.4 mM

Compound: NCCC(=O)NCCC(=O)O [β-Ala-β-Ala]
- Produced peptide [1, 16]: 0.2 mM

Compound: CSCC[C@H](NC(=O)[C@@H](N)Cc1c[nH]c2ccccc12)C(=O)O [L-Trp-L-Met] (H-Trp-Met-OH)
- Produced peptide [1, 5]: 4.1 mM

Compound: CSCC[C@@H](N)C(=O)N[C@H](CO)C(=O)O [D-Met-D-Ser] (H-[dM]-[dS]-OH)
- Produced peptide [1, 15]: 2.7 mM

Compound: NCC(=O)N[C@@H](CS)C(=O)O [Gly-L-CySH] (H-Gly-Cys-OH)
- Produced peptide [1, 5]: 45.6 mM

Compound: N[C@@H](Cc1ccccc1)C(=O)N[C@@H](CO)C(=O)O [L-Phe-L-Ser] (H-Phe-Ser-OH)
- Produced peptide [1, 14]: 0.6 mM

Compound: NC(=O)C[C@H](N)C(=O)N[C@@H](CCC(=O)O)C(=O)O [LAsn-L-Glu] (H-Asn-Glu-OH)
- Produced peptide [1, 5]: 10.2 mM

Compound: [dA]-Gly-Phe
- Produced peptide (mM) [1, 11]: Tr

Compound: C[C@H](N)C(=O)N[C@@H](CC(=O)OC(C)(C)C)C(=O)O [H-Ala-Asp(OtBu)-OH] (H-Ala-Asp(OtBu)-OH)
- Produced peptide ([1]; carboxy component 100 mM, amine component 150 mM, 0.1 unit enzyme, 25° C., reaction time 2 hr): 62.6 mM

Compound: Gly-Phe-Met
- Produced peptide ([1]; oligopeptide production, amount of enzyme 1.0 units, pH 9.0, 25° C., 3 hours): 13.3 mM

Compound: CC(C)[C@H](N)C(=O)N[C@H](CO)C(=O)O [L-Val-D-Ser] (H-Val-[dS]-OH)
- Produced peptide [1, 15]: 1.4 mM

Compound: CCOC(=O)[C@H](C)N.Cl [L-Alanine ethyl ester.HCl]
- L-Ala-L-Gln produced ([1]; carboxy component (label) 100 mM, 200 mM L-glutamine, pH 9.0, 25° C., 2 hours): 91.5 mM

Compound: C[C@H](N)C(=O)N[C@@H](Cc1ccc(Cl)cc1)C(=O)O [H-Ala-Cl-F-Phe-OH]
- Produced peptide ([1]; carboxy component 40 mM, amine component 40 mM, 0.1 unit enzyme, 25° C., reaction time 3 hr): 20.8 mM

Compound: N[C@@H](CO)C(=O)N[C@H](CO)C(=O)O [L-Ser-D-Ser] (H-Ser-[dS]-OH)
- Produced peptide [1, 15]: 16.2 mM

Compound: NCC(=O)NC(CC(=O)O)c1ccccc1 (stereo not drawn) [Gly-β-Phe]
- Produced peptide [1, 16]: 0.4 mM

Compound: NCCC(=O)N[C@@H](CCC(N)=O)C(=O)O [β-Ala-L-Gln]
- Produced peptide [1, 16]: 0.6 mM

Compound: CC(C)(N)C(=O)N[C@@H](Cc1ccccc1)C(=O)O [H-Aib-Phe-OH] (H-[Aib]-Phe-OH)
- Produced peptide ([1]; carboxy component 100 mM, amine component 150 mM, 0.1 unit enzyme, 25° C., reaction time 3 hr): 17.2 mM

Compound: L-Ala-L-Ala-L-Ala-L-Ala-L-Ala-L-Ala
- Produced peptide (mM) ([1]; carboxy component 10 mM, amine component 15 mM, pH 9.0, 25° C., 3 hours): 1.4* mM
